Source: patent US20230331655A1, “HYDROXYN[…] AND METHODS OF USE THEREOF” (UNIVERSITY OF MARYLAND, BALTIMORE, priority 2020, published 2023)
Entries after “also recorded” stand apart in the source; their conditions may differ.

Tests used:
Male C57BL/6J mice [1] = assay: sub-threshold social defeat stress in mice previously exposed to morphine; format: in vivo, mouse
Text: (§1) Animals: Male C57BL/6J mice (8 weeks old, Jackson laboratories) were kept in a temperature and humidity-controlled environment and maintained in a 12:12 hr light/dark cycle (lights on at 7:00 AM). Mice were singly-housed for all the studies due to increased aggression following opioid administration and were randomly assigned to treatment groups.
Drugs: (2R,6R)-HNK hydrochloride was synthesized and characterized. Absolute and relative stereochemistry for (2R,6R)-HNK was confirmed by small molecule x-ray crystallography. For the intraperitoneal injections, drugs were dissolved in 0.9% saline and given in a volume of 5 ml/kg. […]
Social interaction test: Following the sub-threshold social defeat stress, on day 16, test mice were screened for susceptibility in a social interaction/avoidance choice test. […] The time spent interacting (nose within close proximity of the cage) with the “stranger” mouse versus the empty cage was analyzed using TopScan video tracking software (CleverSys, Reston, Virginia). % Social Interaction was calculated as the time spent interacting with stranger divided by the total time interacting with the end-chamber cages×100.
Sucrose preference: Following the social interaction test, mice were assessed for sucrose preference in their home cages. […]

Male C57BL/6J mice [2] = assay: high-dose morphine conditioned-place preference in stress-naive mice; format: in vivo, mouse; conditions: single 10 mg/kg i.p., morphine 5 mg/kg
Text: as §1
Drugs: (2R,6R)-HNK hydrochloride was synthesized and characterized. Absolute and relative stereochemistry for (2R,6R)-HNK was confirmed by small molecule x-ray crystallography. For the intraperitoneal injections, drugs were dissolved in 0.9% saline and given in a volume of 5 ml/kg.
Morphine conditioned-place preference: The conditioned-place preference (CPP) apparatus consisted of a rectangular three-chambered box (40 cm length×30 cm width×35 cm height; Stoelting Co., Wood Dale, IL, USA) comprised of two equal sized end-chambers (20 cm×18 cm×35 cm) and a central chamber (20 cm×10 cm×35 cm). […] The CPP protocol consisted of a pre-conditioning phase, eight conditioning sessions and a post-conditioning test. […]
Conditioning phase (Days 3-6): During the morning sessions of the conditioning phase, saline was administered and mice were placed in their non-opioid assigned compartment for 40 min. […] Time spent in each compartment was measured during both pre- and post-conditioning sessions using TopScan v2.0 (CleverSys, Inc, VA, USA).

SMILES: N[C@@]1(c2ccccc2Cl)CCC[C@@H](O)C1=O [(2R,6R)-HNK, (2R,6R)-hydroxynorketamine]
- stress susceptibility phenotypes / emotional deficits (social interaction, sucrose preference, female urine sniffing, untorn nestlet weight) (Male C57BL/6J mice [1]; 10 mg/kg i.p. 2 hours after sub-threshold social defeat, mice previously exposed to morphine 10 mg/kg): reverses emotional deficits; also recorded: reversed stress susceptibility phenotypes
- reinstatement of maladaptive behaviors after brief re-exposure to stress (Male C57BL/6J mice [1]; 10 mg/kg i.p. after the first defeats, 1 min re-exposure): prevents reinstatement
- development of high-dose morphine CPP (Male C57BL/6J mice [2]): did not prevent
